Data from US20100221763A1, “Specific Acceptors for Transferases to Saccharides and Method for Obtaining and Using Same” (Health Research, Inc, priority 2005, published 2010).
Values belong to the compound of their own block, whether it stands above or below them.

How the values were obtained:
[1] = molecular target: T1, Rat recombinant α2,3(O)ST (Rattus norvegicus, UniProt Q11205); assay: Sialyltransferase assay with cloned α2,3(O)ST; assay type: biochemical; settings: for Km / Vmax: CMP-NeuAc 150 μM, Lineweaver-Burke plot
T1 construct: purchased Calbiochem
T1 sequence (Q11205 1-350): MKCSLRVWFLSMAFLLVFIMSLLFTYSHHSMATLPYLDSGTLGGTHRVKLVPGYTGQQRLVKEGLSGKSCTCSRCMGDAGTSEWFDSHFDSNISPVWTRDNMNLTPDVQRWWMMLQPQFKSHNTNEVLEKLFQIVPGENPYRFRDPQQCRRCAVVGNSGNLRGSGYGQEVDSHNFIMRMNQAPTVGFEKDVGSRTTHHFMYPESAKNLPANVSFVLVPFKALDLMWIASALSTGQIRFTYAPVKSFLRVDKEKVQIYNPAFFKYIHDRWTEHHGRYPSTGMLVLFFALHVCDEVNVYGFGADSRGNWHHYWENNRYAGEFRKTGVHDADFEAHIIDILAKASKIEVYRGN

[2] = molecular target: T1, Rat recombinant α2,3(O)ST; assay: Sialyltransferase assay with cloned α2,3(O)ST; assay type: biochemical; settings: for Sialyltransferase activity (%) Cloned α2,3(O)ST: Table I, [14C] sialylated product quantitated on Biogel P2 column; for acceptor efficiency for cloned α2,3(O)ST: 0.75 mM, compared to 3-O-MeGalβ1,4GlcNAcβ1,6(Galβ1,3)GalNAcα-O-Bn
LNCaP α2,3(O)ST = assay: Sialyltransferase assay with LNCaP cell extract; assay type: biochemical, human
Method in brief: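 LNCaP Triton X-100 extract (5 mg protein/ml; 0.1M Tris-maleate pH6.3) incubated with acceptor (typically 7.5 mM) and CMP-[9-3H]NeuAc (typically 0.2 μCi) in 0.1M Na cacodylate pH6.0, 2 h at 37 °C, in duplicate. Radioactive product separated on Dowex-1-formate, Sep-Pak C18 or Biogel P2 and counted by scintillation; blank without acceptor subtracted.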

[3] = molecular target: T2, Rat recombinant α2,6(N)ST (Rattus norvegicus, UniProt P13721); assay: Sialyltransferase assay with cloned α2,6(N)ST; assay type: biochemical; settings: Table I; acceptor 7.5 mM; sialylated product quantitated on Biogel P2 column
T2 construct: purchased Calbiochem
T2 sequence (P13721 1-403): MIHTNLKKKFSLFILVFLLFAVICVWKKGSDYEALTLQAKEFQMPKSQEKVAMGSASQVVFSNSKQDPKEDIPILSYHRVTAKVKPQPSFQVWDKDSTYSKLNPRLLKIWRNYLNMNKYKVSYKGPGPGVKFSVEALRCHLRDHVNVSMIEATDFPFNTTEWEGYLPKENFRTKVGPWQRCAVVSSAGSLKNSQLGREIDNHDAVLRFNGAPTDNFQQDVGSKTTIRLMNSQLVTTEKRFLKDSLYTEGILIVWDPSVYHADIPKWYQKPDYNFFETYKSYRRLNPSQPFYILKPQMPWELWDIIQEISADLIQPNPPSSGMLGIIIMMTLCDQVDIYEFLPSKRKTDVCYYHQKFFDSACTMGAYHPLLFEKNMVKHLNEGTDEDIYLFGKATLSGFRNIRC
Procedure: Rat recombinant α2,3(O)ST, α2,3(N)ST and α2,6(N)ST were purchased from Calbiochem and stored at either −20° C. or −70° C. as recommended by the supplier. […] 10 μl aliquots of the diluted enzymes were used in the assays run in duplicate.
The incubation mixtures run in duplicate contained 0.1M NaCacodylate buffer pH6.0, the acceptor (typically at 7.5 mM, or as indicated in some experiments), CMP-[9 ^3H] NeuAc (typically 0.2 μci; 20 μci/nmol or as indicated in some experiments) and the enzyme in a total volume of 20 μl. The control incubation mixtures contained everything except the acceptor. Incubation was carried out for 2 h at 37° C. The enzymatic transfer of [9-^3H] NeuAc to a typical acceptor was linear for 2 h and less than 30% CMP-[9-^3H] NeuAc was utilized. Chromatography, using either Dowex-1-Formate, Sep-Pak C18 or Biogel P2, was applied to separate radioactive product from un-reacted [9-^3H] NeuAc as described below.
The radioactive products from neutral allyl and methyl glycosides as well as non-glycosides were measured by fractionation on Dowex-1-Formate (Bio-Rad: AG-1X8; 200-400 mesh; format form) as follows: The incubation mixture was diluted with 1.0 ml water and passed through AG-1-formate column (1.0 ml bed volume in a Pasteur pipet which had been washed with 5 ml of 2M Formic acid followed by 10 ml water). The column was washed twice with 1.0 ml water after the entry of the sample and then eluted with 3.0 ml of 0.1M NaCl. The radioactivity present in water and 0.1M NaCl eluates were measured separately using 3a70 scintillation cocktail (Research Products International, Mount Prospect, Ill.) and a Beckman LS6500 scintillation counter. The CPM values were corrected by subtracting the blank CPM. Any radioactivity present in the water eluate (as noticed in the case of some methylglycosides) was added to the corresponding CPM value of 0.1M NaCl eluate. The radioactive products from sulfated and/or sialylated methylglycosides were also measured by the above procedure, only the elution of the AG-1-Formate column was continued further with 3.0 ml of 0.2M NaCl for achieving a complete elution of the radioactive product, a correction being made as before by subtracting the corresponding blank values.
The radioactive products from benzylglycosides and monosialylated benzylglycosides were measured by hydrophobic chromatography on Sep-Pak C18 cartridge (Waters, Milford, Mass.) and eluting the product with 3.0 ml methanol (30). The radioactivity was determined by liquid scintillation as above.
For such work, a Biogel P2 column (Fine Mesh; 1.0×116.0 cm) was used with 0.1M pyridine acetate pH5.4 as the eluent at room temperature. The effluent fractions were monitored for radioactivity and the first peak containing radioactivity was collected, lyophilized to dryness, dissolved in 200 μl of water and stored frozen at −20° C. for thin layer chromatography (TLC) and other experimentation.

[4] = Table II, acceptor 0.75 mM, relative to Galβ1,3GalNAcα-O-Bn
[5] = Table II, acceptor 7.5 mM, relative to Galβ1,3GalNAcα-O-Bn

SMILES: C=CCO[C@H]1O[C@H](CO[C@@H]2O[C@H](CO)[C@@H](O)[C@H](O)[C@H]2NC(C)=O)[C@H](O)[C@H](O[C@@H]2O[C@H](CO)[C@H](O)[C@H](O)[C@H]2O)[C@H]1NC(C)=O [Galβ1,3(GlcNAcβ1,6)GalNAcα-O—Al]
Sialyltransferase activity (%) Cloned α2,3(O)ST ([1]; Table I, acceptor 7.5 mM, 100% = 40560 CPM (3-O-MeGalβ1,4GlcNAcβ1,6(Galβ1,3)GalNAcα-O-Bn)): 120.5^1% | Sialyltransferase activity (%) Cloned α2,3(O)ST ([1]; Table IV, compound 7.5 mM, relative to Galβ1,3(GlcNAcβ1,6)GalNAcα-O—Al): 100.0% | Radioactivity incorporated (100% value) Cloned α2,3(O)ST ([2]; Table IV, compound 7.5 mM): 29860 CPM | Sialyltransferase activity (%) LNCaP α2,3(O)ST (LNCaP α2,3(O)ST; Table I, acceptor 7.5 mM, 100% = 30930 CPM (3-O-MeGalβ1,4GlcNAcβ1,6(Galβ1,3)GalNAcα-O-Bn)): 60.4%

SMILES: CC(=O)N[C@H]1[C@H](OC[C@H]2O[C@H](OCc3ccccc3)[C@H](NC(C)=O)[C@@H](O[C@@H]3O[C@H](CO)[C@H](O)[C@H](O)[C@H]3O)[C@H]2O)O[C@H](CO)[C@@H](O[C@@H]2O[C@H](CO)[C@H](O)[C@H](OS(=O)(=O)O)[C@H]2O)[C@@H]1O [3-O-SulfoGalβ1,4GlcNAcβ1,6(Galβ1,3)GalNAcα-O-Bn]
Sialyltransferase activity (%) Cloned α2,3(O)ST ([2]; acceptor 7.5 mM): 70.3^e,6% | Sialyltransferase activity (%) Cloned α2,3(O)ST ([2]; acceptor 7.5 mM, listed as 3-O-sulfoGalβ1,4GlcNAcβ1,6(Galβ1,3)GalNAcα-O-Bn): 70.3%

SMILES: CC(=O)N[C@H]1[C@H](OC[C@H]2O[C@H](OCc3ccccc3)[C@H](NC(C)=O)[C@@H](O[C@@H]3O[C@H](CO)[C@H](O)[C@H](OS(=O)(=O)O)[C@H]3O)[C@H]2O)O[C@H](CO)[C@@H](O[C@@H]2O[C@H](CO)[C@H](O)[C@H](O)[C@H]2O)[C@@H]1O [Galβ1,4GlcNAcβ1,6(3-O-SulfoGalβ1,3)GalNAcα-O-Bn]
Sialyltransferase activity (%) Cloned α2,3(O)ST ([2]; acceptor 7.5 mM): 33.1^e,7% | Sialyltransferase activity (%) Cloned α2,6(N)ST [3]: 127.4^e,18%

SMILES: CC(=O)N[C@H]1[C@H](OC[C@H]2O[C@H](OCc3ccccc3)[C@H](NC(C)=O)[C@@H](O[C@@H]3O[C@H](C)[C@H](O)[C@H](O)[C@H]3O)[C@H]2O)O[C@H](CO)[C@@H](O)[C@@H]1O [D-Fucβ1,3(GlcNAcβ1.6)GalNAcα-O-Bn]
Km [1]: 280 µM | Vmax [1]: 1562 pmol/h | acceptor efficiency for cloned α2,3(O)ST [2]: 100%

The next lines start with results.

Sialyltransferase activity (%) Cloned α2,3(O)ST [1, 4]: 100.0^8% | Sialyltransferase activity (%) Cloned α2,3(O)ST [1, 5]: 100.0^8% | Radioactivity incorporated (100% value) Cloned α2,3(O)ST ([2]; Table II, acceptor 0.75 mM): (42550 CPM) | Radioactivity incorporated (100% value) Cloned α2,3(O)ST ([2]; Table II, acceptor 7.5 mM): (43600 CPM)
SMILES: CC(=O)N[C@H]1[C@@H](OCc2ccccc2)O[C@H](CO)[C@H](O)[C@@H]1O[C@@H]1O[C@H](CO)[C@H](O)[C@H](O)[C@H]1O [Galβ1,3GalNAcα-O-Bn]
Radioactivity incorporated (100% value) LNCaP α2,3(O)ST (LNCaP α2,3(O)ST; Table II, acceptor 0.75 mM): (30490 CPM) | Sialyltransferase activity (%) LNCaP α2,3(O)ST (LNCaP α2,3(O)ST; [4]): 100.0% | Radioactivity incorporated (100% value) LNCaP α2,3(O)ST (LNCaP α2,3(O)ST; Table II, acceptor 7.5 mM): (30600 CPM) | Sialyltransferase activity (%) LNCaP α2,3(O)ST (LNCaP α2,3(O)ST; [5]): 100.0%

Km [1]: 210 µM | Vmax [1]: 1250 pmol/h | acceptor efficiency for cloned α2,3(O)ST [2]: 100%
SMILES: CC(=O)N[C@H]1[C@@H](OCc2ccccc2)O[C@H](CO)[C@H](O)[C@@H]1O[C@@H]1O[C@H](C)[C@H](O)[C@H](O)[C@H]1O [D-Fucβ1,3GalNAcα-O-Bn]
